The structures appear in SMILES notation.

The text below walks through data of patent US11208412B2 (DAEGU-GYEONGBUK MEDICAL INNOVATION FOUNDATION, priority 2017, dated 2021).

Common to all, as to assay: Kinase selectivity, DiscoverX scanMAX Kinase assay panel (% control)
Assay type in all cases: binding

Assay [1] has as its target T1, kinases of the scanMAX Kinase assay panel (Homo sapiens, UniProt Q14012).
T1 construct: purchased DiscoverX Co. (contract measurement) scanMAX Kinase assay panel
Conditions: CAMK1; 1 uM. Put shortly:
(§1)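 Each enzyme is treated with drug at 1 uM in DMSO, then signal is scaled between a positive control (0%) and DMSO (100%) to give % control. Kinases with % control under 35% are scored as inhibited.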

Assay [2] concerns the target T2, kinases of the scanMAX Kinase assay panel (Homo sapiens, UniProt P21802).
T2 construct: purchased DiscoverX Co. (contract measurement) scanMAX Kinase assay panel
Particulars: FGFR2; 1 uM. The method, boiled down:
as §1

Assay [3] deals with T3, kinases of the scanMAX Kinase assay panel (Homo sapiens, UniProt Q09013).
T3 construct: purchased DiscoverX Co. (contract measurement) scanMAX Kinase assay panel
T3 sequence (Q09013 1-629): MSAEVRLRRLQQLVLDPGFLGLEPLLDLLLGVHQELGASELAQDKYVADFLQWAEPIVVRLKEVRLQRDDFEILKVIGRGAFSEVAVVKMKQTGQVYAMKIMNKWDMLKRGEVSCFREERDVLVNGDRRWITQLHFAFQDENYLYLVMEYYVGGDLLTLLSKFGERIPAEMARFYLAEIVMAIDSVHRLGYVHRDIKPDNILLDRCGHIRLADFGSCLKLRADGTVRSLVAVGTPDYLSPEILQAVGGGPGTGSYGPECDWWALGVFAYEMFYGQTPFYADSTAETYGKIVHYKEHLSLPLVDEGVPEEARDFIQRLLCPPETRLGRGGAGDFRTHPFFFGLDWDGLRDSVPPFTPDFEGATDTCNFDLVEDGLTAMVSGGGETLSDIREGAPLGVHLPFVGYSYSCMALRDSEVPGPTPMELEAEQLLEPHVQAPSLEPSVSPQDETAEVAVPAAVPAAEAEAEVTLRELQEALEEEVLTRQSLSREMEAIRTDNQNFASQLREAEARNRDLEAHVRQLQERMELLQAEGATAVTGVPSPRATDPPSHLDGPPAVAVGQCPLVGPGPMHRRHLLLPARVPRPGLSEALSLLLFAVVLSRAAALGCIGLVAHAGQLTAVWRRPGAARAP
Conditions: DMPK; 1 uM. Put shortly: as §1

Assay [4] addresses T4, kinases of the scanMAX Kinase assay panel (Homo sapiens, UniProt P42336, E545A).
T4 construct: purchased DiscoverX Co. (contract measurement) scanMAX Kinase assay panel
Particulars: PIK3CA(E545A); 1 uM. The method, boiled down:
as §1

Assay [5] deals with T5, kinases of the scanMAX Kinase assay panel (Homo sapiens, UniProt P24941).
T5 construct: purchased DiscoverX Co. (contract measurement) scanMAX Kinase assay panel
Particulars: CDK2; 1 uM. The method, boiled down: as §1

Assay [6] has as its target T6, kinases of the scanMAX Kinase assay panel (Homo sapiens, UniProt P80192).
T6 construct: purchased DiscoverX Co. (contract measurement) scanMAX Kinase assay panel
Conditions: MLK1; 1 uM. The method, boiled down:
as §1

In assay [7] the target is T7, kinases of the scanMAX Kinase assay panel (Homo sapiens, UniProt P52564).
T7 construct: purchased DiscoverX Co. (contract measurement) scanMAX Kinase assay panel
T7 sequence (P52564 1-334): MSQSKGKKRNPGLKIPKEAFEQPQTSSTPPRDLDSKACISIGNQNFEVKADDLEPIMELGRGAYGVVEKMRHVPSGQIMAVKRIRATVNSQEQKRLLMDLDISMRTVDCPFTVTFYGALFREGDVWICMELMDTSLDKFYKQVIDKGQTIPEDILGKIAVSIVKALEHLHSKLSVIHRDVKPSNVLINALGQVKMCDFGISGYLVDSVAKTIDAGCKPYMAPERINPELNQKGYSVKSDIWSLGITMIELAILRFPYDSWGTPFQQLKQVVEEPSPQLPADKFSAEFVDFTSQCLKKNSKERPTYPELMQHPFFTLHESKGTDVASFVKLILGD
Particulars: MEK6; 1 uM. The method, boiled down:
as §1

The target in assay [8] is T8, kinases of the scanMAX Kinase assay panel (Homo sapiens, UniProt P53355).
T8 construct: purchased DiscoverX Co. (contract measurement) scanMAX Kinase assay panel
Particulars: DAPK1; 1 uM. The method, boiled down:
as §1

The target of assay [9] is T9, kinases of the scanMAX Kinase assay panel (Homo sapiens, UniProt Q9P1W9).
T9 construct: purchased DiscoverX Co. (contract measurement) scanMAX Kinase assay panel
Conditions: PIM2; 1 uM. Put shortly:
as §1

Assay [10] addresses T10, kinases of the scanMAX Kinase assay panel (Homo sapiens, UniProt P30530).
T10 construct: purchased DiscoverX Co. (contract measurement) scanMAX Kinase assay panel
T10 sequence (P30530 26-894): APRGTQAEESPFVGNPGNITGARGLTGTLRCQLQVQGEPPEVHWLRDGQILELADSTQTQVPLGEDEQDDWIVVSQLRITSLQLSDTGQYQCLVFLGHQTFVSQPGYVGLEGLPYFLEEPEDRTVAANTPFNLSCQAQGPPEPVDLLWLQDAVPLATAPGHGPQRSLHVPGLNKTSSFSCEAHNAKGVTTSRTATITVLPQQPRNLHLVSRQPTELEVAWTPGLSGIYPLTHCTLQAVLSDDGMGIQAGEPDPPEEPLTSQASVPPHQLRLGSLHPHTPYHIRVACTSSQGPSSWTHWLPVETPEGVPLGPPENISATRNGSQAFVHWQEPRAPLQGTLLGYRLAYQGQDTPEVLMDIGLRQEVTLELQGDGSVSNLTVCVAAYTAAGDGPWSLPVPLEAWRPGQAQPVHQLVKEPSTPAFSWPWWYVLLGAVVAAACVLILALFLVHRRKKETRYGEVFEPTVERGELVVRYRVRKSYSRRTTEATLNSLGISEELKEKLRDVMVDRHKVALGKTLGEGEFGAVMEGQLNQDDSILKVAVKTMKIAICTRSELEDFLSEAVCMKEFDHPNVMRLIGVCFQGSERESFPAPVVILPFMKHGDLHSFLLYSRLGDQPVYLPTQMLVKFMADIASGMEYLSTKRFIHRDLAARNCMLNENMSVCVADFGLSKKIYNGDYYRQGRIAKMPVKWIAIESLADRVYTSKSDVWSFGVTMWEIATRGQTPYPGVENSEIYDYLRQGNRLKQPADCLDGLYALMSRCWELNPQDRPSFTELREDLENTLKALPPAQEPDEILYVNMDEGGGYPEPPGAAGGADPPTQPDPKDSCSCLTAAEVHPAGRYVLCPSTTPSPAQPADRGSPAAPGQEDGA
Conditions: AXL; 1 uM. Put shortly:
as §1

Assay [11] addresses T11, kinases of the scanMAX Kinase assay panel (Homo sapiens, UniProt P49137).
T11 construct: purchased DiscoverX Co. (contract measurement) scanMAX Kinase assay panel
Conditions: MAPKAPK2; 1 uM. The method, boiled down:
as §1

T9 sequence (Q9P1W9 whole entry): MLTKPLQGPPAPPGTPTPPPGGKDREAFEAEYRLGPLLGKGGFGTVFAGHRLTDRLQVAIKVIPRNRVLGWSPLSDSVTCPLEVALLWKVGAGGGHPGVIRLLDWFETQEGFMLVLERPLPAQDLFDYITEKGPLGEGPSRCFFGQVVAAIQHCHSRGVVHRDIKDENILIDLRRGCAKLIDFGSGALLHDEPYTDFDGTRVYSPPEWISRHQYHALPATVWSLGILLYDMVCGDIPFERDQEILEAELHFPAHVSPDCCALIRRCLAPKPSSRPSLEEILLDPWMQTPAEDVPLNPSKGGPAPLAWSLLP
T6 sequence (P80192 whole entry): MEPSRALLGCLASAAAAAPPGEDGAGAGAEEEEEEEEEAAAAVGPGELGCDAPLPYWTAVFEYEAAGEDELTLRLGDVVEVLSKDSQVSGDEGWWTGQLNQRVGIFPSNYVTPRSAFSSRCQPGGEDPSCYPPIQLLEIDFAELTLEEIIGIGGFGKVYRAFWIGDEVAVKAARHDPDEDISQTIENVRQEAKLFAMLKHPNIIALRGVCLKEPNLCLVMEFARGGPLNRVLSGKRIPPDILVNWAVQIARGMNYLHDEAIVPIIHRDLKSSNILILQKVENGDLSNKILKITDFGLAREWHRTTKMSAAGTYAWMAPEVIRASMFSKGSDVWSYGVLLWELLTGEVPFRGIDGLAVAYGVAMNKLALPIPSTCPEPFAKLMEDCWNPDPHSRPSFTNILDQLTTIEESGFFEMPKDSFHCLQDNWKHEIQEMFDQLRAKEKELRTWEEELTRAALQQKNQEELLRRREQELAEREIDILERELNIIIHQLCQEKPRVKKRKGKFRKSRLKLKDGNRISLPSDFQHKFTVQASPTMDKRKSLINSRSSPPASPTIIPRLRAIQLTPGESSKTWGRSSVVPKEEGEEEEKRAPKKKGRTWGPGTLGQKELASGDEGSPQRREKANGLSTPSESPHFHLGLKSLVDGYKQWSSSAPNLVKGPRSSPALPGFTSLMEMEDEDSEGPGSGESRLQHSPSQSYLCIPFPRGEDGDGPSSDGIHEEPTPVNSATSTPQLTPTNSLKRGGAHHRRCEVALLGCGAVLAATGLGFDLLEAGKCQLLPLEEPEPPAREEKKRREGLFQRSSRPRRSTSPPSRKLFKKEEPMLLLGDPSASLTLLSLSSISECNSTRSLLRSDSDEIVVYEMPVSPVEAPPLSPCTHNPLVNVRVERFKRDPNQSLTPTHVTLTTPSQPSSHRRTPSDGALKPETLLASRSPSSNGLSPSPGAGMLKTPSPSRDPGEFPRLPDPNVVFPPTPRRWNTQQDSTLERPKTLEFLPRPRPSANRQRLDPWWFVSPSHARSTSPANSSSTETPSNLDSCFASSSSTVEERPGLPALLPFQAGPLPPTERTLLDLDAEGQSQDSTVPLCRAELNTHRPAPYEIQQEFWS
T11 sequence (P49137 whole entry): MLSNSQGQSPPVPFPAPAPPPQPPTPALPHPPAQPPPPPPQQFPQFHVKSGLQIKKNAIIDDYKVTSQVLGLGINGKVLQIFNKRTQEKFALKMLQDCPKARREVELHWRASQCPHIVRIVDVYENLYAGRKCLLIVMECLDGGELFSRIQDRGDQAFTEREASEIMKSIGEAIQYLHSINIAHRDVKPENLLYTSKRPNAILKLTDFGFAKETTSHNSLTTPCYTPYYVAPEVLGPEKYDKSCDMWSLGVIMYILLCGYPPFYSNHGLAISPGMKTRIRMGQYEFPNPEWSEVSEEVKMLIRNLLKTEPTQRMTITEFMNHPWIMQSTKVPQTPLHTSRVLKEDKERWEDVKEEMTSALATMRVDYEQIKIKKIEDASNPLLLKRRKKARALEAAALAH
T1 sequence (Q14012 whole entry): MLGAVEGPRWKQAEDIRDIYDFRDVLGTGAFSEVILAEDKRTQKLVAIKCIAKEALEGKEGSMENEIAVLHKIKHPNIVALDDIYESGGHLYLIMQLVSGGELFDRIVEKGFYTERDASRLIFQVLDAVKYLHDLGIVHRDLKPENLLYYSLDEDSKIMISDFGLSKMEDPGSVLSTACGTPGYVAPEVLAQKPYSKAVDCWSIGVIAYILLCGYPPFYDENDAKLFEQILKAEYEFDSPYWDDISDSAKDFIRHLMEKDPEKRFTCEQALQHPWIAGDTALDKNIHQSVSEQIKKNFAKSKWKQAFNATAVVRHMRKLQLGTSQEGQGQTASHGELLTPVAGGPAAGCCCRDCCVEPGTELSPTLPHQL
T2 sequence (P21802 22-821): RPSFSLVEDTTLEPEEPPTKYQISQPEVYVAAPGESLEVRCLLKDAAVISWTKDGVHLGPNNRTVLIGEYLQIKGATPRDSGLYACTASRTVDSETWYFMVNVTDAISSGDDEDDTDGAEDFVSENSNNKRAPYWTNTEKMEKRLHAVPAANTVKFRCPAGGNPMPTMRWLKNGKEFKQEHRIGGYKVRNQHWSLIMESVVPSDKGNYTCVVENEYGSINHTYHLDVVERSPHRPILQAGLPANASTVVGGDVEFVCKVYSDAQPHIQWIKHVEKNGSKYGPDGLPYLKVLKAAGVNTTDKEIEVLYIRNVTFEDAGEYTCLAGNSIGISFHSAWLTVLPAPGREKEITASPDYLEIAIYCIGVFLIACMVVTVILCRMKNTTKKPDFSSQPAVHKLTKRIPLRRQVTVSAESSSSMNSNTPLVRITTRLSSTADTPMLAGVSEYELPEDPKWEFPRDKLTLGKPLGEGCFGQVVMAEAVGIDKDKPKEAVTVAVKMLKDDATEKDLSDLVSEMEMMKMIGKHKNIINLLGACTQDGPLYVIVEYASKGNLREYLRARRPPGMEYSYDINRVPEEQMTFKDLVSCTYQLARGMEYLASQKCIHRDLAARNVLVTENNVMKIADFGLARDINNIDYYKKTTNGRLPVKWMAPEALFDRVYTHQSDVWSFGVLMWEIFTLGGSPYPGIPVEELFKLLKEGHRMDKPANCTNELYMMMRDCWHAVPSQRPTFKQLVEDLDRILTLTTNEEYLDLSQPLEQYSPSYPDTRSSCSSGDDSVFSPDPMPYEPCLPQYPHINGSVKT
T8 sequence (P53355 whole entry): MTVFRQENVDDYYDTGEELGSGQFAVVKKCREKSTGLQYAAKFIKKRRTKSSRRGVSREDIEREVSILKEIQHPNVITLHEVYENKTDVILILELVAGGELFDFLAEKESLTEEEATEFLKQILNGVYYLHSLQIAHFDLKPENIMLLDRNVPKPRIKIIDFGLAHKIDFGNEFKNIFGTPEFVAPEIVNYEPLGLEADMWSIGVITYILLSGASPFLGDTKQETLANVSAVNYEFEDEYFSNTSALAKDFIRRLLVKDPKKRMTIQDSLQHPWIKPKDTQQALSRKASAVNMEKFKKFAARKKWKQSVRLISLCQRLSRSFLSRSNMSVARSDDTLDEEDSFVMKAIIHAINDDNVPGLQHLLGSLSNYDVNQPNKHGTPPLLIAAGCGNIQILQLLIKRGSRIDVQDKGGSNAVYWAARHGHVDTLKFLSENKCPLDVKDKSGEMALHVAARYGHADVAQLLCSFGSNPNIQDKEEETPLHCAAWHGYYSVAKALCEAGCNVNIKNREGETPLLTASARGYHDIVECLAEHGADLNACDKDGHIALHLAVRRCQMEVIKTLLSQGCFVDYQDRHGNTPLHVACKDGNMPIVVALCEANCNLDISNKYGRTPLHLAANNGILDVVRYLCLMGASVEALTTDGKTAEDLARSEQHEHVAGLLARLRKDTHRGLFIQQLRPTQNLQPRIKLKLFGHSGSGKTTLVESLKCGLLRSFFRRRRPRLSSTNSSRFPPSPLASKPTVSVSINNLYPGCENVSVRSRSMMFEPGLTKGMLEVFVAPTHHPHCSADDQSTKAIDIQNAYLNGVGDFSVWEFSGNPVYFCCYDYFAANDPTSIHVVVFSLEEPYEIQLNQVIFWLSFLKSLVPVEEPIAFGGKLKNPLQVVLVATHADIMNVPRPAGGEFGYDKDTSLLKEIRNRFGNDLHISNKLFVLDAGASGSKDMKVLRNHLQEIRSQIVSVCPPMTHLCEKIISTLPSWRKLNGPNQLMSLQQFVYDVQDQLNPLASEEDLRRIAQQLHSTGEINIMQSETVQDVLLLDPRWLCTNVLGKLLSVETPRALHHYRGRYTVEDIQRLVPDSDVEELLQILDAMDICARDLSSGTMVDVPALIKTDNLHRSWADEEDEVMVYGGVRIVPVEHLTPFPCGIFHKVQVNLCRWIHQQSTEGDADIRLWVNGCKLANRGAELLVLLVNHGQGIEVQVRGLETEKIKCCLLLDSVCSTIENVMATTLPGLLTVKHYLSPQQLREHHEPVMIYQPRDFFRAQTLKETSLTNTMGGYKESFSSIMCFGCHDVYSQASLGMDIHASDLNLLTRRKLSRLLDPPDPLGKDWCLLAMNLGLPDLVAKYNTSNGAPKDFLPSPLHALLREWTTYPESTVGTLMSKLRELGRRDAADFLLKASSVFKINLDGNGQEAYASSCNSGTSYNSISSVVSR

`CNc1nc(Nc2ccc(C(=O)N3CCOCC3)cc2OC)nc2[nH]cc(C#N)c12` [Example 1, 2-((2-methoxy-4-(morpholine-4-carbonyl)phenyl)amino)-4-(methylamino)-7H-pyrrolo[2,3-d]pyrimidine-5-carbonitrile]: the remaining binding at 1 µM in [1] amounted to 59%; in assay [2] it was 95%; in [3] it was 100%; in [4], 94%; in [5], 94%; in assay [6], 81%. Also, the remaining binding at 1 µM was found to be 43% in assay [7]; 8.5% in assay [8]; 78% in [9]; 90% in assay [10]; 4.6% in assay [11].

`CC1(Nc2nc(Nc3cnn([C@H]4CCN(C5COC5)C[C@@H]4F)c3Cl)nc3[nH]cc(C#N)c23)CC1` [Example 52, 2-((5-chloro-1-((3S,4S)-3-fluoro-1-(oxetane-3-yl)piperidine-4-yl)-1H-pyrazole-4-yl)amino)((1-methylcyclopropyl)amino)-7H-pyrrolo[2,3-d]pyrimidine-5-carbonitrile]: the remaining binding at 1 µM in assay [1] is 6.8%; in [2], 26%; in [3] it was 3.4%; in [4] it was 71%; in [5] it was 96%; in assay [6] it was 0.5%. The remaining binding at 1 µM in assay [7] was 19%; in [8], 12%; in [9] it was 63%; in assay [10], 0%; in assay [11], 70%.

As to `CCNc1nc(Nc2ccc(C(=O)N3CCC(N4CCOCC4)CC3)cc2OC)nc2[nH]cc(C(F)(F)F)c12` [Example 104, (4-((4-(ethylamino)-5-(trifluoromethyl)-7H-pyrrolo[2,3-d]pyrimidine-2-yl)amino)-3-methoxyphenyl)(4-morpholinopiperidine-1-yl)methanone], the remaining binding at 1 µM in assay [1] was 72%; in [2] it was 96%; in [3], 100%; in [4] it was 90%; in assay [5], 98%; in assay [6], 66%. Besides, the remaining binding at 1 µM in [7] was found to be 92%; in assay [8] it was 49%; in assay [9], 100%; in [10], 69%; in assay [11] it was 24%.
